# Laboratory results taken from patent US7906106B2, “In vivo cell trafficking” (General Electric Company, priority 2007, dated 2011).
# Tested on: granuloma-derived nucleated cells
# Test: FACS analysis to determine cell viability (7-AAD) after staining with Cy7.5 NHS-ester
# Assay type: cell-based, mouse
# Conditions: granuloma-derived nucleated cells stained with 1 μg dye in 10 ml PBS, on ice 20 minutes
# Method: Cell Staining. 1 μg of Cy 7.5-NHS ester was mixed in 10 ml of PBS. The cells are resuspended in the buffer and left on ice for 20 minutes. Cells were washed three times in PBS and the cell pellet is placed under Optix scanner to confirm cell staining. The cells were resuspended in PBS and 100 μl of the cell suspension (containing 0.5×10^6 cells/100 μl) was injected via the tail vein. The stained cell pellet generated signal that was detected by the scanner.
# FACS Analysis to Determine Cell Viability. Stained cells were washed three times in PBS and resuspended in 100 μl PBS. The cell suspension was incubated with 20 μl of 7-AAD for 20 minutes at room temperature. The cells are washed once in PBS and resuspended in 500 μl of PBS, then analyzed in FACS for viability.
# FACS Analysis for Cellular Markers. The cells were stained with cell markers for leukocytes (CD45) and monocyte/macrophage (CD 11 b). Both CD11b and CD45 antibodies were purchased from Miltenyi Biotec and stained following vendors instructions. Thus, 10 μl of CD11b PE antibody and 10 μl CD45 FITC were incubated with 1×10^6 cells for 20 minutes. The cells were washed in PBS, resuspend in 0.5 mL PBS, and run on Flow Cytometer (Beckman Coulter FC500 MPL). The cells were viable after staining with Cye7.5 NHS-ester and 72% of cell population in the suspension were positive for CD45 and CD11b.
substance,measurement,value
Cy7.5-NHS ester [Cye7.5 NHS-ester],cell viability after staining,viable
